Here are results for one compound from patent US12121596B2, “Near infrared fluorescent dyes, formulations and related methods” (Washington University, priority 2019, dated 2024).

Positions of bridges follow the written chain, without caps; N, C: chain ends. Non-standard residues stand in square brackets, D forms with d. Residues, ends and D or L forms follow the SMILES beside them. *: point of attachment. X1 = CC1(C)C(/C=C/C=C/C=C/C=C2/N(CCC(=O)*)c3ccc4ccccc4c3C2(C)C)=[N+](CCC(=O)[O-])c2ccc3ccccc3c21

The subject of test [1] is lysates of insulin-stimulated, pANXA2-expressing 4T1 cells. The test is described as follows: Binding to lysates of insulin-stimulated 4T1 cells. Also on record: species or system murine. Particulars: read-out: apparent Kd, 4T1 cell lysates. On the procedure:
MST was performed using the Monolith NT.115 (Nanotemper Technologies, Munich, Germany). The appropriate agent(s) and LS301 stock samples were denatured in MST-1 buffer (50 mM Tris-HCl, pH 7.4; 150 mM NaCl; 10 mM MgCl2; 2% DMSO; 0.1% Tween-20; 4% SDS, 4 mM dithiothreitol (DTT)) at 97° C. for 10 min. Fluorescence was assessed in MST-2 buffer (50 mM Tris-HCl, pH 7.4; 150 mM NaCl; 10 mM MgCl2). The protein was prepared in MST-2 buffer, and 20 μL serial dilutions were made with protein concentration ranging from 3.05 pM to 50 nM (pANXA2) or 3.81 pM to 62.5 nM (ANXA2). All samples were loaded into NT.115 standard capillaries. The analysis was performed at 37° C., 30% LED power, 60% MST power, and a constant LS301 concentration of 20 nM. The apparent Kd values were calculated from fragment concentration-dependent changes in normalized fluorescence (Fraction Bound) of LS301 after 5 seconds of thermophoresis based on mass action law using the MO Affinity Analysis v2.3 software.
For Western blot analysis of insulin/PP2-induced change in cellular pANXA2 levels, 4T1 cells were treated with insulin or PP2 as above, lysed, and subjected to SDS-PAGE analysis. […]

In test [2] the test system is lung (A549), breast (MDA-MB-231 and 4T1), and myeloid leukemia (HL60) cell lines. The test is described as follows: Cellular uptake in cancer cell lines, live-cell imaging. It counts as cell-based. Particulars: A549, MDA-MB-231, 4T1, HL60. How it is done:
In general, cultured cancer cells were grown and incubated with the indicated amount of probe in Lab-Tek 8-chambered slides for the indicated time durations. Cells were washed with PBS at selected time points and underwent conventional slide preparation, ICC if indicated, and viewing under epifluorescence or confocal. For live-cell imaging of LS301, internalization at 37° C. in human dermal fibroblasts (Coriell Cell Technologies) and tumor cells including 4T1luc, MDA-MB-231, 5TGM, A549, and HL60 (ATCC) cells were cultured in appropriate media supplemented with 10% […] and penicillin/streptomycin and incubated at 37° C. in 5% CO2 incubator. The cells were grown on Lab-Tek 8-chamber slides (Nunc Inc. Rochester, NY) in the culture medium overnight before the experiment. The compounds were dissolved in 20% DMSO in […] PBS (pH 7.4) (Sigma, St. Louis, MO) for stocking solution and mixed with culture medium to reach the final concentration. Cells were incubated with 1 μM compounds in chamber slides at different time points at 37° C. After LS301 treatment, the culture media was removed and followed by adding culture media containing SYTO 13 nuclear dye from (Thermo Fisher Scientific, Waltham, MA) for 45 minutes at 37° C. For assessing cellular colocalization of LS301 with lipid rafts, the Vybrant AlexaFluor 488 Lipid Raft Labeling Kit (Thermo Fisher Scientific, Waltham, MA, USA) was used per the manufacturer's instructions. […]. LS301 and AlexaFluor 488 fluorescence were imaged using the cypate filter set (Ex/Em 750-800 nm/818-873 nm) and fluorescein isothiocyanate (FITC) filter set (Ex/Em 460-500/510-560 nm), respectively.

The target of test [3] is T1, ANXA2 over ANXA1 and ANXA3 (Homo sapiens, UniProt P07355).
T1 construct: GST; purchased MyBioSource, Inc
T1 sequence (P07355 whole entry): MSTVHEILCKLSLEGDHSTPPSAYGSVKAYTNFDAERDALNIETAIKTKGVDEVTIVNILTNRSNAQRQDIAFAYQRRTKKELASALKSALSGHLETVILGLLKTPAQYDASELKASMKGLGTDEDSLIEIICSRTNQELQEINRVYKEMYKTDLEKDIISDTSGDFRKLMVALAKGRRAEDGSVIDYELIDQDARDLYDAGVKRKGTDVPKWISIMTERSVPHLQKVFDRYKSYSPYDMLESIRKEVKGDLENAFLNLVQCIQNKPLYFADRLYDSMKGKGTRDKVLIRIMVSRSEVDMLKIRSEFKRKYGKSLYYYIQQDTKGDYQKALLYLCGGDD
The test is described as follows: Annexin selectivity, fluorescent gel binding. To be noted: ANXA2 vs ANXA1 and ANXA3. How it is done: For fluorescent gel binding experiments, 1 μg recombinant annexin A2 protein was incubated with LS301 or cypate (10 μM) at 37° C. for the periods indicated. Samples were subjected to SDS-PAGE on precast gels (Bio-Rad, Hercules, CA), and gels were imaged for near-infrared fluorescence (800 nm) using a Pearl Small Animal Imager (LI-COR Biosciences, Lincoln, NE, USA). For competitive binding experiments, Annexin A2-GST, annexin A1, or annexin A3 (1.0 μg protein per sample) was pre-incubated with or without 2.5 mM of LS637 (non-fluorescent LS301 analog; blocking peptide) in binding buffer (25 mM Tris-HCl pH 7.4, 150 mM NaCl, 1 mM MgCl2, 1 mM CaCl2) for 1 hour at 37° C. Ten μM. LS301 was then added to each sample. After incubation for 2 hours at 37° C., proteins were subjected to SDS-PAGE and imaged fluorescently. For some experiments, LS301 was incubated with 4T1 tumor cells before SDS-PAGE.

Regarding `CC1(C)C(/C=C/C=C/C=C/C=C2/N(CCC(=O)N[C@@H]3CSSC[C@@H](C(=O)N[C@@H](CCCCN)C(=O)O)NC(=O)[C@@H]4CCCN4C(=O)[C@H](CO)NC(=O)[C@H](CC(=O)O)NC(=O)[C@H](CCCNC(=N)N)NC(=O)CNC3=O)c3ccc4ccccc4c3C2(C)C)=[N+](CCC(=O)[O-])c2ccc3ccccc3c21` [LS301, cypate-cyclic (DCys-Gly-Arg-Asp-Ser-Pro-Cys)-Lys-OH] (X1-[dC]GRDSPCK-OH; disulfide 1-7), the Kd in test [1] came to 0.017 ± 0.004 nM. In test [2], the “time over which maximum cellular uptake is maintained” value is on record as “over 24 hours” and the “time to maximum concentration of cellular uptake” value came to 12 h. Further, in test [3], the annexin binding preference entry is “preferentially targets ANXA2 over ANXA1 and ANXA3”.
